Like-named read-outs stand apart in the source and are kept apart here.
Tests used:
[1] = biological target: T1, soluble guanylate cyclase (sGC) (Homo sapiens (Human), UniProt Q02108+Q02153); assay: sGC-HEK-cGMP assay run in the absence of SNP (HEK WC assay); type: cell-based; conditions: compound at 30 μM, absence of SNP
How it was run: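 HEK293 cells with endogenous sGC, preincubated 15 min at 37° C with 0.5 mM IBMX, then exposed to test compound 10 min at 37° C without SNP. Cells lysed in 0.1 M HCl; cGMP quantified by LC/MS against a standard curve. EC50 from concentration-response curves.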

Thoracic aortic rings = assay: Alternative thoracic aortic rings assay (Example 19b; resting tension as 100% inhibition); parameters: species or system rat; conditions: Rattus norvegicus, Table 10B; for inhibition at 1 µM: read-out: Percent Relaxation at 1 μM; for inhibition at 3 µM: read-out: Percent Relaxation at 3 μM; for EC50: read-out: Aortic Ring EC50; for inhibition at 10 µM: read-out: Percent Relaxation at 10 μM
Protocol: Thoracic aortic rings were dissected from anesthetized (isoflurane) male Sprague-Dawley rats weighing 275-299 g. Tissues were immediately transferred to ice-cold Krebs-Henseleit solution, which had been aerated with 95% O2 and 5% CO2 for 30 minutes. Following removal of connective tissue, aortic sections were cut into 4 rings (˜2 mm each) and suspended on 2 L-shaped hooks, with one hook fixed at the bottom of the tissue bath (Schuler Organ Bath, Harvard Apparatus) and the other connected to a force transducer (F30 Force Transducer, Harvard Apparatus). Baths contained Krebs Henseleit solution (10 mL) heated to 37° C. and aerated with 95% O2 and 5% CO2. Rings were brought to an initial tension of 0.3-0.5 g and gradually raised to a resting tension of 1.0 g over 60 minutes. Rings were rinsed with Krebs Henseleit solution (heated to 37° C. and aerated with 95% O2 and 5% CO2) at 15 minute intervals until a stable baseline was obtained. Rings were considered to be stable after a resting tension of 1.0 g was maintained (for approximately 10 minutes) without need for adjustment. Rings were then contracted with 100 ng/mL phenylephrine by adding 100 uL of a 10 μg/mL phenylephrine stock solution. Tissues achieving a stable contraction were then treated in a cumulative, dose dependent manner with test compounds prepared in dimethylsulfoxide (DMSO). In some cases, tissues were rinsed three times over a 5 minute period with Krebs-Heinseleit's solution (heated to 37° C. and aerated with 95% O2 and 5% CO2), allowed to stabilize at baseline, and then used for characterization of other test articles or DMSO effects. All data were collected using the HSE-ACAD software provided by Harvard Apparatus. […] EC50 values were calculated from concentration-response curves generated with GraphPad Prism Software.

[2] = biological target: T1, soluble guanylate cyclase (sGC); assay: sGC-HEK-cGMP assay run with SNP incubation (HEK WC assay); type: cell-based; conditions: for HEK WC Assay (fold increase at 30 μM in the presence of 10 μM SNP): compound at 30 μM; for EC50: in the presence of 10 uM SNP
How it was run: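 HEK293 cells with endogenous sGC were pretreated with 0.5 mM IBMX for 15 min at 37 °C, then exposed to test compound plus sodium nitroprusside for 10 min at 37 °C.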

[3] = read-out: HEK WC Assay (% Emax at 1 μM with 10 uM SNP)
[4] = read-out: HEK WC Assay (% Emax at 10 μM with 10 uM SNP)
[5] = read-out: HEK WC Assay (% Emax at 30 μM with 10 uM SNP)

T1 sequence (Q02153 whole entry): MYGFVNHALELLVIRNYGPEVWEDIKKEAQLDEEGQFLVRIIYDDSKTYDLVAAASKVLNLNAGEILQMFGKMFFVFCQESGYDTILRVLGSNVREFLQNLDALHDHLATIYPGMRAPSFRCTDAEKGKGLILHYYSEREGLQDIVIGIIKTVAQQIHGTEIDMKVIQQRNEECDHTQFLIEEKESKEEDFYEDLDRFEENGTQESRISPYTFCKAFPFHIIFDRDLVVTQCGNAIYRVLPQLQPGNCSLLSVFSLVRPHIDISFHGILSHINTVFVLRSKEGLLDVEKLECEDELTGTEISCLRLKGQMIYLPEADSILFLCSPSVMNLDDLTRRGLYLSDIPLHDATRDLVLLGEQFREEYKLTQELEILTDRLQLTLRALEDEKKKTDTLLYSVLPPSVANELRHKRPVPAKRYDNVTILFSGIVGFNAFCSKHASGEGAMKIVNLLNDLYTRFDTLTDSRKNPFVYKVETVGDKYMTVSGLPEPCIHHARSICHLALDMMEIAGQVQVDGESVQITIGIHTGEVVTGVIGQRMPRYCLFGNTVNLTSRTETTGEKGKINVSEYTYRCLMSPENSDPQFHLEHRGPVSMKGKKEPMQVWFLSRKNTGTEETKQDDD
T1 sequence (Q02108 whole entry): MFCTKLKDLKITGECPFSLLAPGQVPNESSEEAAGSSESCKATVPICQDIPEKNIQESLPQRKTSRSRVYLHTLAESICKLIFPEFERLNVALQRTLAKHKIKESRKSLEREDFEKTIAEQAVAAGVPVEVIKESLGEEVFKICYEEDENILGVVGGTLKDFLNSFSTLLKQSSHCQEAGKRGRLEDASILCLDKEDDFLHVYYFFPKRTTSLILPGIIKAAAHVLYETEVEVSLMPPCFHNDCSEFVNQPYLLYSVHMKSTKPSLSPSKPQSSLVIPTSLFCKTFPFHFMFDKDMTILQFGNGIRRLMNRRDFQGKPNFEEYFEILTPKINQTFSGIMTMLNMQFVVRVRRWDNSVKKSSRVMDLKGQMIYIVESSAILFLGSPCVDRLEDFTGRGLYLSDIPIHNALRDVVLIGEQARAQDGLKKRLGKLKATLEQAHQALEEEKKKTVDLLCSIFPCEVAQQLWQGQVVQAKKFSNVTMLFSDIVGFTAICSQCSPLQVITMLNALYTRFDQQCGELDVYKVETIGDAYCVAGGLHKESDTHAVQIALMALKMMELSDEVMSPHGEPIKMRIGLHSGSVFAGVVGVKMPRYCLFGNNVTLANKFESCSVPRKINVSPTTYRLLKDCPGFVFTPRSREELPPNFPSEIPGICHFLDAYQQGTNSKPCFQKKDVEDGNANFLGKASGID

SMILES	HEK WC Assay (fold increase at 30 μM in the absence of SNP) [1]	EC50 (Thoracic aortic rings) [µM]	HEK WC Assay (fold increase at 30 μM in the presence of 10 μM SNP) [2]	EC50 [2] [µM]	Emax [2, 3] [%]	Emax [2, 4] [%]	Emax [2, 5] [%]	inhibition at 1 µM (Thoracic aortic rings) [%]	inhibition at 3 µM (Thoracic aortic rings) [%]	inhibition at 10 µM (Thoracic aortic rings) [%]
COc1cccc(C(=O)Nc2cnc(-c3cc(-c4ccon4)n(Cc4ccccc4F)n3)nc2N)c1 [Compound I-174]	E (E = 10 to <20 fold increase)	< 2	F (F = 20 to <30 fold increase)	< 20	60 to 80	80 to 100	100 to 120	80 to 100	80 to 100	–
COC(=O)Nc1cnc(-c2cc(-c3ccon3)n(Cc3ccccc3F)n2)nc1N [Compound I-142]	E (E = 10 to <20 fold increase)	< 2	F (F = 20 to <30 fold increase)	< 20	–	100 to 120	100 to 120	80 to 100	100 to 120	–
Nc1nc(-c2cc(-c3ccon3)n(Cc3ccccc3F)n2)ncc1N1CCOC1=O [Compound I-153]	C (C = 2 to <5 fold increase)	< 2	D (D = 5 to <10 fold increase)	< 20	–	40 to 60	60 to 80	60 to 80	60 to 80	80 to 100
CC(C)(C)C(=O)Nc1cnc(-c2cc(-c3ccon3)n(Cc3ccccc3F)n2)nc1N [Compound I-277]	D (D = 5 to <10 fold increase)	< 2	E (E = 10 to <20 fold increase)	< 20	60 to 80	80 to 100	80 to 100	60 to 80	80 to 100	100 to 120
Nc1nc(-c2cc(-c3ncco3)n(Cc3ccccc3F)n2)ncc1F [Compound I-147]	D (D = 5 to <10 fold increase)	< 2	E (E = 10 to <20 fold increase)	< 20	–	80 to 100	60 to 80	60 to 80	80 to 100	80 to 100
Nc1nc(-c2cc(-c3ccon3)n(Cc3ccccc3F)n2)ncc1Nc1nccs1 [Compound I-178]	E (E = 10 to <20 fold increase)	< 2	E (E = 10 to <20 fold increase)	< 20	40 to 60	80 to 100	60 to 80	60 to 80	100 to 120	100 to 120
CC(C)COC(=O)Nc1cnc(-c2cc(-c3ccon3)n(Cc3ccccc3F)n2)nc1N [Compound I-150]	E (E = 10 to <20 fold increase)	< 2	E (E = 10 to <20 fold increase)	< 20	–	80 to 100	80 to 100	40 to 60	80 to 100	80 to 100

Second part, led by results:

HEK WC Assay (fold increase at 30 μM in the absence of SNP) [1]	EC50 (Thoracic aortic rings) [µM]	HEK WC Assay (fold increase at 30 μM in the presence of 10 μM SNP) [2]	EC50 [2] [µM]	Emax [2, 3] [%]	Emax [2, 4] [%]	Emax [2, 5] [%]	SMILES	inhibition at 1 µM (Thoracic aortic rings) [%]	inhibition at 3 µM (Thoracic aortic rings) [%]	inhibition at 10 µM (Thoracic aortic rings) [%]
E (E = 10 to <20 fold increase)	< 2	E (E = 10 to <20 fold increase)	< 20	20 to 40	60 to 80	60 to 80	Nc1nc(-c2cc(-c3ccon3)n(Cc3ccccc3F)n2)ncc1NC(=O)c1ccncc1 [Compound I-176]	80 to 100	100 to 120	–
E (E = 10 to <20 fold increase)	< 2	E (E = 10 to <20 fold increase)	< 20	–	60 to 80	40 to 60	Nc1nc(-c2cc(-c3ccon3)n(Cc3ccccc3F)n2)ncc1NC(=O)OCCCl [Compound I-152]	60 to 80	80 to 100	100 to 120
E (E = 10 to <20 fold increase)	< 2	E (E = 10 to <20 fold increase)	< 20	80 to 100	60 to 80	80 to 100	Nc1nc(-c2cc(-c3ccon3)n(Cc3ccccc3F)n2)ncc1NC(=O)c1ccccc1F [Compound I-172]	80 to 100	100 to 120	100 to 120
E (E = 10 to <20 fold increase)	< 2	F (F = 20 to <30 fold increase)	< 20	100 to 120	100 to 120	100 to 120	CC1(C(=O)Nc2cnc(-c3cc(-c4ccon4)n(Cc4ccccc4F)n3)nc2N)CC1 [Compound I-206]	20 to 40	60 to 80	80 to 100
D (D = 5 to <10 fold increase)	< 2	E (E = 10 to <20 fold increase)	< 20	–	100 to 120	100 to 120	CC(C)(C)OC(=O)Nc1cnc(-c2cc(-c3ncco3)n(Cc3ccccc3F)n2)nc1N [Compound I-148]	80 to 100	80 to 100	–
B (B = 1 to <2 fold increase)	< 2	D (D = 5 to <10 fold increase)	40 to 60	–	20 to 40	20 to 40	Cc1csc(-c2cc(-c3ncccn3)nn2Cc2ccccc2F)n1 [Compound I-294]	20 to 40	60 to 80	100 to 120
D (D = 5 to <10 fold increase)	< 2	F (F = 20 to <30 fold increase)	< 20	60 to 80	100 to 120	–	O=S(=O)(c1ccccc1)c1cnc(-c2cc(-c3ccon3)n(Cc3ccccc3F)n2)nc1O [Compound I-217]	40 to 60	60 to 80	80 to 100
E (E = 10 to <20 fold increase)	< 2	F (F = 20 to <30 fold increase)	< 20	40 to 60	60 to 80	60 to 80	Nc1nc(-c2cc(-c3ccon3)n(Cc3ccccc3F)n2)ncc1NC(=O)c1cnco1 [Compound I-188]	80 to 100	100 to 120	100 to 120
C (C = 2 to <5 fold increase)	–	E (E = 10 to <20 fold increase)	< 20	–	20 to 40	60 to 80	Nc1ccnc(-c2cc(-c3cnco3)n(Cc3ccccc3F)n2)n1 [Compound I-296]	20 to 40	40 to 60	80 to 100
C (C = 2 to <5 fold increase)	< 2	E (E = 10 to <20 fold increase)	< 20	20 to 40	60 to 80	80 to 100	CS(=O)(=O)c1cnc(-c2cc(-c3ccon3)n(Cc3ccccc3F)n2)nc1O [Compound I-196]	60 to 80	80 to 100	80 to 100
E (E = 10 to <20 fold increase)	< 2	E (E = 10 to <20 fold increase)	< 20	60 to 80	100 to 120	80 to 100	Cc1ccccc1C(=O)Nc1cnc(-c2cc(-c3ccon3)n(Cc3ccccc3F)n2)nc1N [Compound I-184]	80 to 100	100 to 120	–

From US10189809B2, “SGC stimulators” (Ironwood Pharmaceuticals, Inc., priority 2010, dated 2019)
